Experimental data: ChEMBL document CHEMBL1128112, “The Abu-pocket paradox of the cyclophilin a / cyclosporin a interaction” (1995)

Species on record: Mus musculus
Assay: Compound was tested in vitro for its immunosuppressive potential using mouse mixed lymphocyte reaction (MLR_M) with relative to Cyclophilin A
Assay type: functional

## C/C=C/C[C@@H](C)[C@@H](O)[C@H]1C(=O)N[C@@H](C(O)Cc2ccccc2)C(=O)N(C)CC(=O)N(C)[C@@H](CC(C)C)C(=O)N[C@@H](C(C)C)C(=O)N(C)[C@@H](CC(C)C)C(=O)N[C@@H](C)C(=O)N[C@H](C)C(=O)N(C)[C@@H](CC(C)C)C(=O)N(C)[C@@H](CC(C)C)C(=O)N(C)[C@@H](C(C)C)C(=O)N1C (stereo partly specified)
  rIC50: 360
